Test results as given in patent publication US8691842B2, “Pharmaceutical composition for preventing or treating rheumatoid arthritis, containing rebamipide” (Catholic University Industry Academic Cooperation Foundation, priority 2009, dated 2014).
Entries after “also recorded” stand apart in the source; their conditions may differ.

What was measured:
Type in all cases: in vivo, DBA/1J mice
[1] = tested on: collagen induced arthritis (CIA) animal model; test: Average arthritis score in collagen induced arthritis (CIA) animals; conditions: CIA mice; rebamipide 0.6 mg/kg or 6 mg/kg orally, every other day, ten times; evaluated second to tenth week; FIG. 1
[2] = tested on: collagen induced arthritis (CIA) animal model; test: Histological test of joints and cartilage in CIA animals; conditions: CIA mice, FIG. 2
[3] = tested on: CII-specific immunoglobulin (total IgG); test: Serologic test (ELISA) measuring collagen-specific antibody in serum of CIA animals; conditions: CIA mice, rebamipide orally, serum diluted 1:8000, FIG. 3

Q: With `O=C(NC(Cc1cc(=O)[nH]c2ccccc12)C(=O)O)c1ccc(Cl)cc1` (stereo not shown) [rebamipide] as the compound, how does the arthritis score [1] read?
A: The arthritis score was “dose-dependently decreased; also recorded: gradually decreased”.

Q: What about the “degree of joint and cartilage destruction” value ([2]; rebamipide 0.6 mg/kg or 6 mg/kg orally, sacrificed after 10 weeks, hematoxylin and eosin, toluidine blue, safranin O) of the same compound?
A: Its value is “remarkably reduced”.

Q: And the “degree of cartilage destruction” value ([2]; rebamipide orally, histological assay)?
A: Its value is “improved, being similar to that of a normal mouse”.

Q: And the “level of Type II collagen-specific immunoglobulin (total IgG) in serum” value [3]?
A: Its value is “significantly decreased”.
